Results: US20040176431A1, “Antiproliferative 2-(sulfo-phenyl)-aminothiazole derivatives and pharmaceutical compositions, and methods for their use” (Pfizer, Inc., priority 2003, published 2004)

Tests used:
[1] = target: T1, CDK4/cyclin D3 (Homo sapiens, UniProt P11802); assay: Inhibition of CDK4/Cyclin D retinoblastoma kinase activity; assay type: biochemical; conditions: apparent Ki, Rb fragment substrate
T1 construct: made in house; host or cells: insect cells (baculovirus co-infection)
Method in brief: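 Human CDK4 with truncated cyclin D3 (1-264) from baculovirus-infected insect cells, 5 nM, phosphorylating His-tagged Rb fragment (386-928) with 25 μM [32P/33P]ATP in pH 7.4 HEPES/MgCl2, 2% DMSO, 30° C., 20 min (60 min for tight binders). Filter capture, phosphorimager; apparent Ki from competitive or tight-binding competitive fits.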

[2] = target: T2, CDK2/cyclin A (Homo sapiens, UniProt P24941); assay: Inhibition of CDK2/Cyclin A retinoblastoma kinase activity; assay type: biochemical; conditions: apparent Ki, Rb fragment substrate
T2 construct: made in house; host or cells: CDK2: insect cells (baculovirus); cyclin A: E. coli, then limited proteolysis
Protocol: Cyclin-dependent kinase activity was measured by quantifying the enzyme-catalyzed, time-dependent incorporation of radioactive phosphate from [^32P]ATP or [^33P]ATP into a protein substrate. Unless noted otherwise, assays were performed in 96-well plates in a total volume of 50 μL, in the presence of 10 mM HEPES (N-[2-hydroxyethyl]piperazine-N′-[2-ethanesulfonic acid]) (pH 7.4), 10 mM MgCl2, 25 μM adenosine triphosphate (ATP), 1 mg/mL ovalbumin, 5 μg/mL leupeptin, 1 mM dithiothreitol, 10 mM β-glycerophosphate, 0.1 mM sodium vanadate, 1 mM sodium fluoride, 2.5 mM ethylene glycol-bis(β-aminoethyl ether)-N,N,N′N′-tetraacetic acid (EGTA), 2% (v/v) dimethylsulfoxide, and 0.03-0.4 μCi [^32/33P]ATP per reaction. Reactions were initiated with enzyme, incubated at 30° C., and terminated after 20 minutes by the addition of ethylenediaminetetraacetic acid (EDTA) to 250 mM. The phosphorylated substrate was then captured on a nitrocellulose or phosphocellulose membrane using a 96-well filtration manifold, and unincorporated radioactivity was removed by repeated washing with 0.85% phosphoric acid. Radioactivity was quantified by exposing the dried membranes to a phosphorimager.
Inhibition was measured relative to control wells that contained all reaction components including 2% (v/v) DMSO but no compound, after subtraction of background radioactivity measured in the absence of enzyme. Apparent Ki values of discrete compounds were measured by assaying enzyme activity in the presence of different inhibitor compound concentrations and subtracting the background radioactivity measured in the absence of enzyme. The kinetic parameters (kcat, Km for ATP) were measured for each enzyme under the usual assay conditions by determining the dependence of initial rates on ATP concentration. Inhibition data were fit to an equation for competitive inhibition using Kaleidagraph (Synergy Software), or were fit to an equation for competitive tight-binding inhibition using the software KineTic (BioKin, Ltd.).
CDK2 was purified using published methodology (Rosenblatt et al., J. Mol. Biol., 230, 1317-1319 (1993)) from insect cells that had been infected with a baculovirus expression vector. Cyclin A was purified from E. coli cells expressing full-length recombinant cyclin A, and a truncated cyclin A construct was generated by limited proteolysis and purified as described previously (Jeffrey et al., Nature, 376, 313-320 (1995)). A complex of CDK2 and proteolyzed cyclin A was prepared and purified by gel filtration. The substrate for this assay was the same Rb substrate fragment used for the CDK4 assays, and the methodology of the CDK2/delta cyclin A and the CDK4/delta cyclin D3 assays was essentially the same, except that CDK2 was present at 10 nM or 19 nM. The duration of the assay was 60 or 75 minutes, during which the time-dependence of product formation was linear and initial rate conditions were met.

[3] = system: HCT-116 cells; assay: Inhibition of cell growth (MTT tetrazolium salt assay); assay type: cell-based; conditions: Homo sapiens; for IC50: read-out: HCT116 IC50; for IC90: read-out: HCT116 IC90
Protocol: Inhibition of cell growth was measured using the tetrazolium salt assay, which is based on the ability of viable cells to reduce 3-(4,5-dimethylthiazol-2-yl)-2,5-[2H]-diphenyltetrazolium bromide (MTT) to formazan (Mosmann, J. Immunol. Meth., 65, 55-63 (1983)). The water-insoluble purple formazan product was then detected spectrophotometrically. HCT-116 cells were grown in 96-well plates. Cells were plated in the appropriate medium at a volume of 135 μl/well in either McCoy's 5A Medium. Plates were incubated for four hours before addition of inhibitor compounds. Different concentrations of inhibitor compounds were added in 0.5% (v/v) dimethylsulfoxide (15 μL/well), and cells were incubated at 37° C. (5% CO2) for four to six days (depending on cell type). At the end of the incubation, MTT was added to a final concentration of 0.2 mg/mL, and cells were incubated for 4 hours more at 37° C. After centrifugation of the plates and removal of medium, the absorbance of the formazan (solubilized in dimethylsulfoxide) was measured at 540 nm. […] All results were compared to control cells treated only with 0.5% (v/v) dimethylsulfoxide.

T1 sequence (P11802 whole entry, the tested form may be a part): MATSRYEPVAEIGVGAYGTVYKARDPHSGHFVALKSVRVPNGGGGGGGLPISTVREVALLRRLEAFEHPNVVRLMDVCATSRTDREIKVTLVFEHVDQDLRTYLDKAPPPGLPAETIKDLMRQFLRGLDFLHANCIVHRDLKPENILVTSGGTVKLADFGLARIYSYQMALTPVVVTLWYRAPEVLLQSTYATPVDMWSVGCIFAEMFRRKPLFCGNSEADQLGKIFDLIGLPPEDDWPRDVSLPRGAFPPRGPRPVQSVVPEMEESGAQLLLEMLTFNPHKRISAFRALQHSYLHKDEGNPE
T1 sequence (P30281 1-264 partner limits assumed): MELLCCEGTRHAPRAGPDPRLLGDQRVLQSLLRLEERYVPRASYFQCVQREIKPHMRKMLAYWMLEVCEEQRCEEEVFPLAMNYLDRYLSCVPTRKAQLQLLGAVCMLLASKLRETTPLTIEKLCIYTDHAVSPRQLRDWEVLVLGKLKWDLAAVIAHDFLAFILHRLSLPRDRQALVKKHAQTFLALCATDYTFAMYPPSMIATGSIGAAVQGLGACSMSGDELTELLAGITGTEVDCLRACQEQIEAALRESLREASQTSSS

Row | Ki [1] | Ki [2] | IC50 [3] | IC90 [3] | SMILES
1 | 6.2 nM | 1.3 nM | 980 nM | 2300 nM | CC(CCCC(C)(C)O)NS(=O)(=O)c1ccc(Nc2nc(N)c(C(=O)c3c(F)cc(F)cc3F)s2)cc1 (centres unmarked) [B(2), 4-[4-Amino-5-(2,4,6-trifluoro-benzoyl)-thiazol-2-ylamino]-N-(5-hydroxy-1,5-dimethyl-hexyl)-benzenesulfonamide]
2 | 42 nM | 15 nM | 7000 nM | 17000 nM | Cc1csc(NS(=O)(=O)c2ccc(Nc3nc(N)c(C(=O)c4c(F)cccc4F)s3)cc2)n1 [E(1), 4-[4-Amino-5-(2,6-difluoro-benzoyl)-thiazol-2-ylamino]-N-(4-methyl-thiazol-2-yl)-benzenesulfonamide]
3 | 7.5 nM | 4.5 nM | 360 nM | 1100 nM | CN(C)CCNS(=O)(=O)c1ccc(Nc2nc(N)c(C(=O)c3c(F)cccc3F)s2)cc1 [Example A(2), 4-[4-Amino-5-(2,6-difluoro-benzoyl)-thiazol-2-ylamino]-N-(2-dimethylamino-ethyl)-benzenesulfonamide]
4 | 24 nM | 5.7 nM | 1300 nM | 3000 nM | Nc1nc(Nc2ccc(S(=O)(=O)NCCCCO)cc2)sc1C(=O)c1c(F)cccc1F [Example A(5), 4-[4-Amino-5-(2,6-difluoro-benzoyl)-thiazol-2-ylamino]-N-(4-hydroxy-butyl)-benzenesulfonamide]
5 | 26 nM | 5.3 nM | 1900 nM | 4200 nM | Nc1nc(Nc2ccc(S(=O)(=O)NCCOCCO)cc2)sc1C(=O)c1c(F)cccc1F [Example A(6), 4-[4-Amino-5-(2,6-difluoro-benzoyl)-thiazol-2-ylamino]-N-[2-(2-hydroxy-ethoxy)-ethyl]-benzenesulfonamide]
6 | 9.9 nM | 11 nM | 2400 nM | 5000 nM | Nc1nc(Nc2ccc(S(=O)(=O)NCCCN3CCCC3)cc2)sc1C(=O)c1c(F)cccc1F [Example A(8), 4-[4-Amino-5-(2,6-difluoro-benzoyl)-thiazol-2-ylamino]-N-(3-pyrrolidin-1-yl-propyl)-benzenesulfonamide]
7 | < 5 nM | < 5 nM | 140 nM | 400 nM | Nc1nc(Nc2ccc(S(=O)(=O)NCCNc3ccccc3)cc2)sc1C(=O)c1c(F)cccc1F [Example A(9), 4-[4-Amino-5-(2,6-difluoro-benzoyl)-thiazol-2-ylamino]-N-(2-phenylamino-ethyl)-benzenesulfonamide]
8 | 4.2 nM | < 5 nM | 150 nM | 630 nM | CC(CCCC(C)(C)O)NS(=O)(=O)c1ccc(Nc2nc(N)c(C(=O)c3c(F)cccc3F)s2)cc1 (centres unmarked) [Example A(12), 4-[4-Amino-5-(2,6-difluoro-benzoyl)-thiazol-2-ylamino]-N-(5-hydroxy-1,5-dimethyl-hexyl)-benzenesulfonamide]
9 | 8.1 nM | 6 nM | 420 nM | 1700 nM | Nc1nc(Nc2ccc(S(=O)(=O)NCCCN3CCCCC3)cc2)sc1C(=O)c1c(F)cccc1F [Example A(14), 4-[4-Amino-5-(2,6-difluoro-benzoyl)-thiazol-2-ylamino]-N-(3-piperidin-1-yl-propyl)-benzenesulfonamide]

More lines, now with the values behind:

Row | SMILES | Ki [1] | Ki [2] | IC50 [3] | IC90 [3]
10 | Nc1nc(Nc2ccc(S(=O)(=O)NC3CCNCC3)cc2)sc1C(=O)c1c(F)cccc1F [BB(1), 4-[4-Amino-5-(2,6-difluoro-benzoyl)-thiazol-2-ylamino]-N-piperidin-4-yl-benzenesulfonamide] | 13 nM | 13 nM | 22000 nM | > 50000 nM
11 | Nc1nc(Nc2ccc(S(=O)(=O)Nc3ccccc3)cc2)sc1C(=O)c1c(F)cccc1F [C(1), 4-[4-Amino-5-(2,6-difluoro-benzoyl)-thiazol-2-ylamino]-N-phenyl-benzenesulfonamide] | 76 nM | 17 nM | 870 nM | 1900 nM
12 | Cc1ccsc1C(=O)c1sc(Nc2ccc(S(N)(=O)=O)cc2)nc1N [C(48)*, reference compound] | 19.1 nM | 11 nM | 340 nM | –
13 | Nc1nc(Nc2ccc(S(=O)(=O)NCC3CCCNC3)cc2)sc1C(=O)c1c(F)cccc1F (centres unmarked) [D(1), 4-[4-Amino-5-(2,6-difluoro-benzoyl)-thiazol-2-ylamino]-N-piperidin-3-ylmethyl-benzenesulfonamide] | 12 nM | 18 nM | 17000 nM | > 25000 nM
14 | Nc1nc(Nc2ccc(S(=O)(=O)NCC3CCCCN3)cc2)sc1C(=O)c1c(F)cccc1F (centres unmarked) [D(2), 4-[4-Amino-5-(2,6-difluoro-benzoyl)-thiazol-2-ylamino]-N-piperidin-2-ylmethyl-benzenesulfonamide] | 20 nM | 45 nM | 4000 nM | 9200 nM
15 | CNCCNS(=O)(=O)c1ccc(Nc2nc(N)c(C(=O)c3c(F)cccc3F)s2)cc1 [D(3), 4-[4-Amino-5-(2,6-difluoro-benzoyl)-thiazol-2-ylamino]-N-(2-methylamino-ethyl)-benzenesulfonamide] | 5.7 nM | 9.4 nM | 2900 nM | > 5000 nM
16 | Nc1nc(Nc2ccc(S(=O)(=O)N3CCNCC3)cc2)sc1C(=O)c1c(F)cccc1F [Example A(1), {4-Amino-2-[4-(piperazine-1-sulfonyl)-phenylamino]-thiazol-5-yl}-(2,6-difluoro-phenyl)-methanone] | 26 nM | 14 nM | 1000 nM | 2700 nM
17 | COCCNS(=O)(=O)c1ccc(Nc2nc(N)c(C(=O)c3c(F)cccc3F)s2)cc1 [Example A(3)] | 53 nM | 3.5 nM | 340 nM | 720 nM
18 | Nc1nc(Nc2ccc(S(=O)(=O)NCCO)cc2)sc1C(=O)c1c(F)cccc1F [Example A(4), 4-[4-Amino-5-(2,6-difluoro-benzoyl)-thiazol-2-ylamino]-N-(2-hydroxy-ethyl)-benzenesulfonamide] | 28 nM | 4.5 nM | 1000 nM | 2800 nM
19 | CC(C)OCCCNS(=O)(=O)c1ccc(Nc2nc(N)c(C(=O)c3c(F)cccc3F)s2)cc1 [Example A(10), 4-[4-Amino-5-(2,6-difluoro-benzoyl)-thiazol-2-ylamino]-N-(3-isopropoxy-propyl)-benzenesulfonamide] | 12 nM | 2.2 nM | 900 nM | 2200 nM
20 | CCN(CC)CCCNS(=O)(=O)c1ccc(Nc2nc(N)c(C(=O)c3c(F)cccc3F)s2)cc1 [Example A(13), 4-[4-Amino-5-(2,6-difluoro-benzoyl)-thiazol-2-ylamino]-N-(3-diethylamino-propyl)-benzenesulfonamide] | 8.9 nM | 10 nM | 730 nM | 3000 nM
21 | CC1CCCCN1CCCNS(=O)(=O)c1ccc(Nc2nc(N)c(C(=O)c3c(F)cccc3F)s2)cc1 (centres unmarked) [Example A(15), 4-[4-Amino-5-(2,6-difluoro-benzoyl)-thiazol-2-ylamino]-N-[3-(2RS-methyl-piperidin-1-yl)-propyl]-benzenesulfonamide] | 8.4 nM | 8.2 nM | 460 nM | 1800 nM
